Test results: patent US20060154990A1, “Use of MEK inhibitors in treating abnormal cell growth” (AGOURON PHARMACEUTICALS, INC., priority 2004, published 2006)
Marks after values point to notes of the source that are not given here.

System: Colo-205 human colon xenograft
Assay: Antitumor activity against human colon xenograft Colo-205
Procedure: A study was also carried out to explore the potential of an intermittent dosing strategy.

[1] = Colo-205, D19, 22, 25, 28, 31, 34, 37, 40, 43, 46, 18.8 mg/kg
[2] = Colo-205, D19, 22, 25, 28, 31, 34, 37, 40, 43, 46, 37.5 mg/kg
[3] = Colo-205, D19, 22, 25, 28, 31, 34, 37, 40, 43, 46, 75 mg/kg
[4] = Colo-205, D19, 22, 25, 28, 31, 34, 37, 40, 43, 46, 150 mg/kg
[5] = Colo-205, D19, 26, 33, 40, 47, 37.5 mg/kg
[6] = Colo-205, D19, 26, 33, 40, 47, 75 mg/kg
[7] = Colo-205, D19, 26, 33, 40, 47, 150 mg/kg
[8] = Colo-205, D19, 26, 33, 40, 47, 300 mg/kg (toxic)
[9] = Colo-205, D19-23, 26-30, 33-37, 40-44, 3.1 mg/kg
[10] = Colo-205, D19-23, 26-30, 33-37, 40-44, 6.3 mg/kg
[11] = Colo-205, D19-23, 26-30, 33-37, 40-44, 12.5 mg/kg
[12] = Colo-205, D19-23, 26-30, 33-37, 40-44, 25 mg/kg

SMILES: O=C(NOC[C@H](O)CO)c1ccc(F)c(F)c1Nc1ccc(I)cc1F [Compound 1, N-[(R)-2,3-dihydroxy-propoxy]-3,4-difluoro-2-(2-fluoro-4-iodo-phenylamino)-benzamide]
- CR (complete response) [1]: 0/6
- Net Log10 kill [1]: 0.1
- Nonspecific Deaths [1]: 0/6
- PR (partial response) [1]: 0/6
- T − C [1]: 29.5 days
- Tumor Free [1]: 0/6
- CR (complete response) [2]: 0/6
- Net Log10 kill [2]: 0.6
- Nonspecific Deaths [2]: 0/6
- PR (partial response) [2]: 0/6
- T − C [2]: 37.7 days
- Tumor Free [2]: 0/6
- CR (complete response) [3]: 1/6
- Net Log10 kill [3]: 0.8
- Nonspecific Deaths [3]: 0/6
- PR (partial response) [3]: 2/6
- T − C [3]: 41.5 days
- Tumor Free [3]: 0/6
- CR (complete response) [4]: 2/5
- Net Log10 kill [4]: 0.7
- Nonspecific Deaths [4]: 1/6^h
- PR (partial response) [4]: 3/5
- T − C [4]: 39.9 days
- Tumor Free [4]: 0/5
- CR (complete response) [5]: 0/6
- Net Log10 kill [5]: −0.8
- Nonspecific Deaths [5]: 0/6
- PR (partial response) [5]: 0/6
- T − C [5]: 13.1 days
- Tumor Free [5]: 0/6
- CR (complete response) [6]: 0/6
- Net Log10 kill [6]: −0.6
- Nonspecific Deaths [6]: 0/6
- PR (partial response) [6]: 0/6
- T − C [6]: 17.0 days
- Tumor Free [6]: 0/6
- CR (complete response) [7]: 1/6
- Net Log10 kill [7]: 0.4
- Nonspecific Deaths [7]: 0/6
- PR (partial response) [7]: 1/6
- T − C [7]: 35.4 days
- Tumor Free [7]: 0/6
- Net Log10 kill (Colo-205, D19, 26, 33, 40, 47, 300 mg/kg): Toxic
- CR (complete response) [8]: 2/3
- Nonspecific Deaths [8]: 3/6^i Toxic
- PR (partial response) [8]: 1/3 Toxic
- T − C [8]: 60.3 Toxic days
- Tumor Free [8]: 1/3 Toxic
- CR (complete response) [9]: 0/6
- Net Log10 kill [9]: 0.7
- Nonspecific Deaths [9]: 0/6
- PR (partial response) [9]: 2/6
- T − C [9]: 37.8 days
- Tumor Free [9]: 0/6
- CR (complete response) [10]: 1/6
- Net Log10 kill [10]: 1.1
- Nonspecific Deaths [10]: 0/6
- PR (partial response) [10]: 4/6
- T − C [10]: 45.1 days
- Tumor Free [10]: 0/6
- CR (complete response) [11]: 1/6
- Net Log10 kill [11]: 1.1
- Nonspecific Deaths [11]: 0/6
- PR (partial response) [11]: 4/6
- T − C [11]: 45.9 days
- Tumor Free [11]: 0/6
- CR (complete response) [12]: 6/6
- Net Log10 kill [12]: 1.8
- Nonspecific Deaths [12]: 0/6
- PR (partial response) [12]: 0/6
- T − C [12]: 59.3 days
- Tumor Free [12]: 2/6
- CR (complete response) (Colo-205, D19-46, 3.1 mg/kg): 0/6
- Net Log10 kill (Colo-205, D19-46, 3.1 mg/kg): 1.0
- Nonspecific Deaths (Colo-205, D19-46, 3.1 mg/kg): 0/6
- PR (partial response) (Colo-205, D19-46, 3.1 mg/kg): 5/6
- T − C (Colo-205, D19-46, 3.1 mg/kg): 45.5 days
- Tumor Free (Colo-205, D19-46, 3.1 mg/kg): 0/6
- CR (complete response) (Colo-205, D19-46, 6.3 mg/kg): 2/6
- Net Log10 kill (Colo-205, D19-46, 6.3 mg/kg): 1.1
- Nonspecific Deaths (Colo-205, D19-46, 6.3 mg/kg): 0/6
- PR (partial response) (Colo-205, D19-46, 6.3 mg/kg): 4/6
- T − C (Colo-205, D19-46, 6.3 mg/kg): 46.7 days
- Tumor Free (Colo-205, D19-46, 6.3 mg/kg): 0/6
- CR (complete response) (Colo-205, D19-46, 12.5 mg/kg): 6/6
- Net Log10 kill (Colo-205, D19-46, 12.5 mg/kg): 2.3
- Nonspecific Deaths (Colo-205, D19-46, 12.5 mg/kg): 0/6
